Test results published in patent US7528124B2, “1,3-dihydro-2H-indol-2-one derivative” (Taisho Pharmaceutical Co., Ltd., priority 2003, dated 2009).
Where two headings read alike, the source gives them in different places.

Assay: Measurement of drug concentration in plasma and brain following oral administration to rats (LC/MS/MS)
Type: in vivo, Sprague-Dawley rats
Settings: rat; for concentration at 1 h: Table 2, 1 hour after administration
Protocol: Measurement of Drug Concentration in Plasma and Brain following Oral Administration to Rats
The compound of Example 1 and compound A (WO01/55130, listed in EXEMPLE 1) were orally administered to Sprague-Dawley rats (male, 8 weeks) at a dose of 5 mL/kg (10 mg/kg) as solutions (each compound was dissolved with 0.03 mol/L HCl containing 5% Cremophor EL, and concentration was prepared by 2 mg/ml).
Blood was collected from the tail vein at 1 and 2 hours after administration. Immediately the brain was excised, 20% homogenate was prepared with distilled water, for assay sample. Similarly, 0.3 mL of blood was collected from the tail vein at 2, 4, 8, and 24 hours following administration, and the plasma following centrifugation was used as a sample.
The concentrations of the compound of Example 1 and compound A in plasma were measured using liquid chromatography tandem mass spectrometry (LC/MS/MS). Specifically, 200 μL of acetonitrile was added to 50 μL of plasma or brain homogenate, vortex mixed and centrifuged. The resulting supernatant was put in a liquid chromatograph with an Agilent Zorbax SB-C18 5 μm column (50 mm long, 2.1 mm in diameter). The elute was 0.1% acetic acid/acetonitrile containing 0.1% acetic acid. The MS/MS detection were performed using a Sciex API3000 LC/MS/MS system with ESI for ionization, in positive ions and MRM mode for monitoring. The m/z 632→472 and m/z 630→472 were monitored for the compound of Example 1 and compound A, respectively.
The concentration of plasma and brain at each sampling point and mean plasma levels after oral administration were shown in Table 2 and Table 3, respectively.

concentration at 1 h (male, Sprague-Dawley, brain, po, 10 mg/kg, brain homogenate, average of three, read-out: Drug concentration, brain, 1 hour): 35 ng/g | concentration at 1 h (male, Sprague-Dawley, plasma, po, 10 mg/kg, average of three, read-out: Drug concentration, plasma, 1 hour): 440 ng/mL | concentration at 2 h (male, Sprague-Dawley, plasma, po, 10 mg/kg, Table 2, 2 hours after administration, average of three, read-out: Drug concentration, plasma, 2 hours): 219 ng/mL | concentration at 2 h (male, Sprague-Dawley, plasma, po, 10 mg/kg, Table 3, serial tail vein sampling, 2 hours, average of three, read-out: Drug concentration in plasma, 2 hours): 139 ng/mL | concentration at 4 h (male, Sprague-Dawley, plasma, po, 10 mg/kg, Table 3, serial tail vein sampling, 4 hours, average of three): 51 ng/mL | concentration at 8 h (male, Sprague-Dawley, plasma, po, 10 mg/kg, Table 3, serial tail vein sampling, 8 hours, average of three): 10 ng/mL | concentration at 2 h (male, Sprague-Dawley, Table 2, oral 10 mg/kg, 2 hours after administration, brain homogenate, average of three, ND: below the quantification detection limit of 5 ng/mL, read-out: Drug concentration, brain, 2 hours): 11 ng/g | plasma levels compared with compound A (oral 10 mg/kg, after 2 hours): higher plasma levels | brain levels compared with compound A (oral 10 mg/kg, at 1 and 2 hours): higher than those of compound A
SMILES: COc1ccc(S(=O)(=O)N2C(=O)C(c3ccccc3OC)(N3C[C@H](F)C[C@H]3C(=O)N(C)C)c3cc(Cl)ccc32)c(OC)c1 (single isomer, unassigned) [Example 1]
